ChEMBL document CHEMBL1133899, “Amino acid derived sulfonamide hydroxamates as inhibitors of procollagen C-proteinase: solid-phase synthesis of ornithine analogues” (Bioorg Med Chem Lett, 2001)

molecular target: T1, Bone morphogenetic protein 1 (Homo sapiens, UniProt P13497); experiment: The compound was evaluated for its inhibitory effect against Procollagen C-terminal proteinase
T1 sequence (P13497 whole entry): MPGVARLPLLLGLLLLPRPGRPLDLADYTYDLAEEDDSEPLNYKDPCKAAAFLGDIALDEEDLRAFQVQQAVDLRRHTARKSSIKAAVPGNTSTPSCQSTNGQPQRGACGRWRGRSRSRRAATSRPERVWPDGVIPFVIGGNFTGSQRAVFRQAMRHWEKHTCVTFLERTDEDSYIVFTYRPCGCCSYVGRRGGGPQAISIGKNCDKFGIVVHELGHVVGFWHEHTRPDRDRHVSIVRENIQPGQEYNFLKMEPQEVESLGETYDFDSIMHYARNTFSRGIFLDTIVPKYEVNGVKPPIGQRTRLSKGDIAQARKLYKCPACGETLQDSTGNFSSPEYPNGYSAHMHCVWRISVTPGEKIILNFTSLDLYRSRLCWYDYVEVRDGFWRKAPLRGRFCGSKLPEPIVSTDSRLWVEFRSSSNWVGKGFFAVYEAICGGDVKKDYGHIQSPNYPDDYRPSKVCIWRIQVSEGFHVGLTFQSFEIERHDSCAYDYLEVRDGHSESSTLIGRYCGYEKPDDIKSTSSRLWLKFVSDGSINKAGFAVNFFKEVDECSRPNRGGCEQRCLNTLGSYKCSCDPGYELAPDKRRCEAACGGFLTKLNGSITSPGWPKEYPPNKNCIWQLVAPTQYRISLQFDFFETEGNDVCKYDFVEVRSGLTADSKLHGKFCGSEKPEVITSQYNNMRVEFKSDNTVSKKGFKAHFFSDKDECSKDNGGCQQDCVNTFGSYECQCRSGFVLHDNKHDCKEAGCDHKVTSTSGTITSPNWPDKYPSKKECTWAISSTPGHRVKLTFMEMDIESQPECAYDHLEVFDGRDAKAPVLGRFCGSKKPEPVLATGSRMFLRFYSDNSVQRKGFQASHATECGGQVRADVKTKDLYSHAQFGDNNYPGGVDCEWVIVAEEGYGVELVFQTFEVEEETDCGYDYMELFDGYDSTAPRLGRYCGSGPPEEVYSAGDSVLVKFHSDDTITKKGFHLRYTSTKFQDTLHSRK

Row | Structure (SMILES) | IC50 [nM]
1 | COc1ccc(S(=O)(=O)N[C@H](CCCNC(=O)N[C@H](C)c2ccccc2)C(=O)NO)cc1 | 110
2 | COc1ccc(S(=O)(=O)N[C@H](CCCNC(=O)NC2CCCCC2)C(=O)NO)cc1 | 230

molecular target: T1, Bone morphogenetic protein 1; experiment: Inhibitory activity against procollagen C-Proteinase (PCP).

Row | Structure (SMILES) | IC50 [nM]
3 | COc1ccc(S(=O)(=O)N(Cc2ccc3c(c2)OCO3)[C@H](CCCNC(=O)OCc2ccccc2Br)C(=O)NO)cc1 | 24
4 | COc1ccc(S(=O)(=O)N(Cc2ccc3c(c2)OCO3)[C@H](CCCNC(=O)OCc2ccccc2)C(=O)NO)cc1 | 9
5 | COc1ccc(S(=O)(=O)N(Cc2ccc3c(c2)OCO3)[C@H](CCCNC(=O)OCc2ccccc2Cl)C(=O)NO)cc1 | 3.9
6 | COc1ccc(S(=O)(=O)N(Cc2ccc3c(c2)OCO3)[C@H](CCCNC(=O)NCc2ccccc2)C(=O)NO)cc1 | 58
7 | COc1ccc(S(=O)(=O)N[C@H](CCCNC(=O)C2CC2)C(=O)NO)cc1 | 770
8 | C[C@@H](NC(=O)NCCC[C@@H](NS(=O)(=O)c1ccc(F)cc1Cl)C(=O)NO)c1ccccc1 | 61000
9 | COc1ccc(S(=O)(=O)N[C@H](CCCNC(=O)N[C@@H]2C[C@H]2c2ccccc2)C(=O)NO)cc1 | 170
10 | COc1ccc(S(=O)(=O)N[C@@H](CCCNC(=O)NCCc2cccs2)C(=O)NO)cc1 | 5500
11 | COC(=O)[C@@H](Cc1ccccc1)NC(=O)NCCC[C@@H](NS(=O)(=O)c1ccc(OC)cc1)C(=O)NO | 140
12 | COc1ccc(S(=O)(=O)N[C@H](CCCNC(=O)N[C@H](C)c2ccccc2)C(=O)NO)cc1 | 110
13 | COc1ccc(S(=O)(=O)N(Cc2ccc3c(c2)OCO3)[C@H](CCCNC(=O)NCc2cccc3ccccc23)C(=O)NO)cc1 | 120
14 | COc1ccc(S(=O)(=O)N[C@H](CCCNC(=O)Nc2cccc(F)c2)C(=O)NO)cc1 | 160
15 | COc1ccc(S(=O)(=O)N[C@H](CCCNC(=O)Nc2ccccc2C)C(=O)NO)cc1 | 260
16 | COc1ccc(S(=O)(=O)N[C@@H](CCCNC(=O)N[C@H](C)c2cccc3ccccc23)C(=O)NO)cc1 | 1600
17 | COc1ccc(S(=O)(=O)N(Cc2ccc3c(c2)OCO3)[C@H](CCCNC(=O)OCC(C)C)C(=O)NO)cc1 | 45
18 | COc1ccc(S(=O)(=O)N(Cc2ccc3c(c2)OCO3)[C@H](CCCNC(=O)NCc2cccc(C)c2)C(=O)NO)cc1 | 50
19 | COc1ccc(S(=O)(=O)N(Cc2ccc3c(c2)OCO3)[C@H](CCCNC(=O)OCc2cccc([N+](=O)[O-])c2)C(=O)NO)cc1 | 38
20 | COc1ccc(S(=O)(=O)N[C@@H](CCCNC(=O)Nc2cccc(F)c2)C(=O)NO)cc1 | 4000
21 | COc1ccc(S(=O)(=O)N[C@H](CCCNC(=O)C2CCCCC2)C(=O)NO)cc1 | 1600
22 | CCCNC(=O)NCCC[C@H](C(=O)NO)N(Cc1ccc2c(c1)OCO2)S(=O)(=O)c1ccc(OC)cc1 | 97
23 | COc1ccc(S(=O)(=O)N[C@@H](CCCNC(=O)Nc2ccccc2Cl)C(=O)NO)cc1 | 7800
24 | CCOC(=O)NCCC[C@H](C(=O)NO)N(Cc1ccc2c(c1)OCO2)S(=O)(=O)c1ccc(OC)cc1 | 220
25 | C[C@@H](NC(=O)NCCC[C@@H](NS(=O)(=O)c1ccc(Cl)cc1)C(=O)NO)c1ccccc1 | 910
26 | COc1cc(C)c(S(=O)(=O)N[C@H](CCCNC(=O)N[C@H](C)c2ccccc2)C(=O)NO)c(C)c1 | 23000
27 | COc1ccc(S(=O)(=O)N[C@H](CCCNC(=O)NCCc2cccs2)C(=O)NO)cc1 | 78

Row | Structure (SMILES) | IC50 [nM]
28 | COc1ccc(S(=O)(=O)N[C@H](CCCNC(=O)N[C@H](C)c2cccc3ccccc23)C(=O)NO)cc1 | 160
29 | COc1ccc(S(=O)(=O)N(Cc2ccc3c(c2)OCO3)[C@H](CCCNC(=O)c2ccccc2)C(=O)NO)cc1 | 98
30 | COc1ccc(S(=O)(=O)N(Cc2ccc3c(c2)OCO3)[C@H](CCCNC(=O)NCCc2ccccc2)C(=O)NO)cc1 | 50
31 | COc1ccc(S(=O)(=O)N[C@@H](CCCNC(=O)N[C@H](C)c2ccccc2)C(=O)NO)cc1 | 2100
32 | C[C@@H](NC(=O)NCCC[C@@H](NS(=O)(=O)c1ccc(Cl)s1)C(=O)NO)c1ccccc1 | 9600
33 | COc1ccc(S(=O)(=O)N[C@H](CCCNS(=O)(=O)c2ccccc2)C(=O)NO)cc1 | 3400
34 | COc1ccc(S(=O)(=O)N[C@H](CCCNC(=O)CCc2ccccc2)C(=O)NO)cc1 | 970
35 | COc1ccc(S(=O)(=O)N[C@@H](CCCNC(=O)Nc2ccccc2)C(=O)NO)cc1 | 6900
36 | COc1ccc(S(=O)(=O)N(Cc2ccc3c(c2)OCO3)[C@H](CCCNC(=O)OCc2ccc([N+](=O)[O-])cc2)C(=O)NO)cc1 | 45
37 | COc1ccc(S(=O)(=O)N[C@H](CCCNC(=O)Nc2ccccc2)C(=O)NO)cc1 | 55
38 | C[C@@H](NC(=O)NCCC[C@@H](NS(=O)(=O)c1ccc(S(=O)(=O)c2cccs2)cc1)C(=O)NO)c1ccccc1 | 5000
39 | COc1ccc(S(=O)(=O)N[C@@H](CCCNC(=O)NC2CC2c2ccccc2)C(=O)NO)cc1 (stereo partly specified) | 290
40 | COc1ccc(S(=O)(=O)N(C)[C@H](CCCNC(=O)Nc2ccccc2)C(=O)NO)cc1 | 1600
41 | COc1ccc(S(=O)(=O)N[C@H](CCCNC(=S)NCc2ccccc2)C(=O)NO)cc1 | 990
42 | COc1ccc(S(=O)(=O)N[C@@H](CCCNC(=O)NC2CCCCC2)C(=O)NO)cc1 | 3600
43 | COc1ccc(S(=O)(=O)N[C@H](CCCNC(=O)Nc2ccccc2Cl)C(=O)NO)cc1 | 92
44 | COc1ccc(S(=O)(=O)N[C@H](CCC/N=C(\S)NC2CCCCC2)C(=O)NO)cc1 | 1700
45 | COc1ccc(S(=O)(=O)N[C@H](CCCNC(=O)OC(C)(C)C)C(=O)NO)cc1 | 4500
46 | COc1ccc(S(=O)(=O)N[C@H](CCCNC(=O)C(C)C)C(=O)NO)cc1 | 1400
47 | C[C@@H](NC(=O)NCCC[C@@H](NS(=O)(=O)c1ccccc1Cl)C(=O)NO)c1ccccc1 | 2300
48 | COc1ccc(S(=O)(=O)N(C)[C@H](CCCNC(=O)Nc2ccccc2Cl)C(=O)NO)cc1 | 7200
49 | COC(=O)[C@@H](Cc1ccccc1)NC(=O)NCCC[C@H](NS(=O)(=O)c1ccc(OC)cc1)C(=O)NO | 5900
50 | COc1ccc(S(=O)(=O)N(C)[C@H](CCCNC(=O)NC(C)c2ccccc2)C(=O)NO)cc1 (stereo partly specified) | 2300
51 | COc1ccc(S(=O)(=O)N(Cc2cccnc2)[C@@H](C(=O)NO)C(C)C)cc1 [CGS-27023A] | 3000
